Measurements taken from patent publication US4695577A, “Anti-hypertensive agents” (University of Miami, priority 1979, dated 1987).

What was measured:
human urinary ACE = target: T1, human urinary ACE (Homo sapiens, UniProt P12821); assay: ACE Activity Assay (hydrolysis of Benzoyl-GlyHisLeu); assay type: biochemical; conditions: purified human urinary ACE, in vitro, pH 8.0, 37° C; read-out: I50
T1 construct: The enzyme preparation was ACE purified from human urine; from tissue; host or cells: human urine
T1 sequence (P12821 30-1232 limits assumed): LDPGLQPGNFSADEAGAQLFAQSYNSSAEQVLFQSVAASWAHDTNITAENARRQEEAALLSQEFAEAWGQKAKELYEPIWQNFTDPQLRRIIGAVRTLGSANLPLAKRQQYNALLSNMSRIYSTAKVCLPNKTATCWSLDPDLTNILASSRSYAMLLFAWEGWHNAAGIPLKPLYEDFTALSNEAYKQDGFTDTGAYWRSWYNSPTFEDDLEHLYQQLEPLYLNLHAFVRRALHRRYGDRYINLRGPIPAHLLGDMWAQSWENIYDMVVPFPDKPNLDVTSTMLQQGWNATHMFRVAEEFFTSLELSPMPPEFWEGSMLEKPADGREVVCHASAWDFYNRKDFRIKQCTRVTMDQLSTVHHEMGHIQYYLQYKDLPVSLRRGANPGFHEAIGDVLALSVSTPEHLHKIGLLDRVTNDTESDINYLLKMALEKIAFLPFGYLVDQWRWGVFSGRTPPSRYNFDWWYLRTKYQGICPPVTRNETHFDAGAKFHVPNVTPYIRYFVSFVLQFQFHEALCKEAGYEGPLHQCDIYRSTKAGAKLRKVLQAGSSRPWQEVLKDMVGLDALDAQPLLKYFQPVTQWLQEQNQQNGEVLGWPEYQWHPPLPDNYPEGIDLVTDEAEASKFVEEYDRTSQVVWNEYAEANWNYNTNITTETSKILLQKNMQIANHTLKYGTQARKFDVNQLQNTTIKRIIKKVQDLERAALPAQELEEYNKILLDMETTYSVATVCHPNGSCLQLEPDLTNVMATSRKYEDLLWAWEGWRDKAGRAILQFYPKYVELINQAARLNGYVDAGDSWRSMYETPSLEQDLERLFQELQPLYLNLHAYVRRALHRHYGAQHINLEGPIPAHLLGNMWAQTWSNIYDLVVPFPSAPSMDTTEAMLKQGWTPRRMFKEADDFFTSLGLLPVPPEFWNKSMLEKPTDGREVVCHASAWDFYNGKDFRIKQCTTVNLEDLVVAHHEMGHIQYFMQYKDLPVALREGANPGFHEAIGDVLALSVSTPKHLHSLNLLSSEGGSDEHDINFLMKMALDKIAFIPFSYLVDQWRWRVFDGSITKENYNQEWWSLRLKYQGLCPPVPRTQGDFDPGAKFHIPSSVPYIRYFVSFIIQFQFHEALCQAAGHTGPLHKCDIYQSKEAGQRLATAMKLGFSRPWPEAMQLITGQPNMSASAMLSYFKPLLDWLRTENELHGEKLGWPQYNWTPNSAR
Description: These factors include the source of enzyme, its purity, the substrate used and its concentration, and the composition of the assay buffer. All I50 data reported herein have been performed with the same assay system and same enzyme (human urinary ACE) and with an approximately 1/2Km level of substrate and are therefore internally consistent.
To initiate the assay, 40 μl of enzyme and 10 μl of water or inhibitor dissolved in water were preincubated for five minutes at 37° C. […] To terminate the reaction, 1 ml of 0.1 M HCl was added, following which 1 ml of ethyl acetate was added. The mixture was agitated on a rotary mixer and centrifuged briefly to separate the phases.
An aliquot, 500 μl, of the ethyl acetate layer was transferred to a liquid scintillation vial containing 10 ml of Riafluor, trademark New England Nuclear Corporation, Boston, Mass. For determination of I50 values, enzyme activity in the presence of inhibitor at a series of different concentrations was compared to activity in the absence of inhibitor.

[1] = tested on: Blood pressure response to angiotensin I; assay: Intravenous effectiveness: blood pressure response to angiotensin I in anesthetized rats; assay type: in vivo, rat; conditions: intravenous 2 μmol/kg
Description: Rats (190-290 g body weight) were fasted overnight and then anesthetized with intraperitoneal pentobarbital, 50-60 mg/kg. Tracheostomy was performed and the animals were ventilated mechanically. A cannula was inserted into a femoral vein for injection of angiotensin I, and a second cannula was inserted into a common carotid artery for direct measurement of arterial blood pressure. Heparin, 1,000 units, was injected via the femoral vein to prevent coagulation. Blood pressure was measured with a pressure transducer connected to a polygraph. The rats were injected with 400 ng/kg of angiotensin I in 20 μl of 0.9 g % NaCl; an amount of angiotensin I sufficient to raise mean arterial blood pressure by 35 mm Hg. After the responsiveness of a given rat to angiotensin I was established, the named compound at 23 μmole/kg (drug dissolved in 0.15 ml of H2 O plus 10 μl of 1 N NaHCO3 ), was given via a stomach tube. At timed intervals, the effects of 400 ng/kg of angiotensin I on mean arterial blood pressure were tested. Results are shown below:
Anesthetized rats were prepared as described in Example 35. After the responsiveness of a given rat to angiotensin I was established, the named compound, at 2 μmol/kg, in a volume of 15 μl of 0.01 N sodium bicarbonate, was injected via a femoral vein. At timed intervals, the effects of angiotensin I, 400 ng/kg, on mean arterial blood pressure were tested.

| SMILES | IC50 (human urinary ACE) [nM] | Blood pressure response to 400 ng/kg angiotensin I ([1]; 3 min) | Blood pressure response to 400 ng/kg angiotensin I ([1]; 9 min) | Blood pressure response to 400 ng/kg angiotensin I ([1]; 13 min) |
| --- | --- | --- | --- | --- |
| C[C@H](CSC(=O)[C@H](Cc1ccccc1)NC(=O)C1CCCC1)C(=O)N1CCC[C@H]1C(=O)O [Example 24, N^α -[3-(N^α -cyclopentylcarbonyl-L-phenylalanylthio)-2-D-methylpropanoyl]-L-proline] | 7.5 |  |  |  |
| C[C@H](CSC(=O)[C@H](Cc1ccccc1)NC(=O)OC(C)(C)C)C(=O)N1CCC[C@H]1C(=O)O [Example 13, N^α -[3-(N^α -Tertiary-Butyloxycarbonyl-L-Phenylalanylthio)-2-D-Methylpropanoyl]-L-Proline] | 34 | 19 % of control | 19 % of control | 22 % of control |
